Measurements taken from ChEMBL document CHEMBL2007661, “Compounds: GSK PKIS; Assays: UNC Frye lab” (2012).
Where “and” joins values, the source holds several entries; their conditions need not be identical. Identical values can stand only once.

Experiments:
[1] = molecular target: T1, Inhibitor of nuclear factor kappa-B kinase subunit alpha (Homo sapiens) (UniProt O15111); details: at 1 µM
T1 sequence (whole entry): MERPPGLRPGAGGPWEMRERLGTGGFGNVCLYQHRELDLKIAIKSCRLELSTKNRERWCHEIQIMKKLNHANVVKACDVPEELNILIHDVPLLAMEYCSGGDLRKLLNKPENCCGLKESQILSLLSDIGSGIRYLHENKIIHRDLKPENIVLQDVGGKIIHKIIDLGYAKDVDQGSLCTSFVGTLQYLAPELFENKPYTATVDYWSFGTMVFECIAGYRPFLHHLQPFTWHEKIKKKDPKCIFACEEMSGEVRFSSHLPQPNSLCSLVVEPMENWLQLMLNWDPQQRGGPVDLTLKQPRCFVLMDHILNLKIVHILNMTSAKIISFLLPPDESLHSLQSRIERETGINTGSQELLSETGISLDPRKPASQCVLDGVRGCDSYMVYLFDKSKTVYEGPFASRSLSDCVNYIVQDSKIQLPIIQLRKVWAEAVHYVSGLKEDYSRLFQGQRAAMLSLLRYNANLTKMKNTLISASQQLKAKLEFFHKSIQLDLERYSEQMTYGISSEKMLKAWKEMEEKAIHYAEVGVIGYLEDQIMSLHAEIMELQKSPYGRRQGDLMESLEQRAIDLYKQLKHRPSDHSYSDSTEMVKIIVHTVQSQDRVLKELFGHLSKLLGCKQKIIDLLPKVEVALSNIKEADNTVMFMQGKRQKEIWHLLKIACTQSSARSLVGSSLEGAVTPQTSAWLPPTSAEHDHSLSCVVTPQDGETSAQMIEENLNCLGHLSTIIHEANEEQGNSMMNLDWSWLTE

[2] = molecular target: T2, Inhibitor of nuclear factor kappa-B kinase subunit epsilon (Homo sapiens) (UniProt Q14164); details: at 1 µM
T2 sequence (whole entry): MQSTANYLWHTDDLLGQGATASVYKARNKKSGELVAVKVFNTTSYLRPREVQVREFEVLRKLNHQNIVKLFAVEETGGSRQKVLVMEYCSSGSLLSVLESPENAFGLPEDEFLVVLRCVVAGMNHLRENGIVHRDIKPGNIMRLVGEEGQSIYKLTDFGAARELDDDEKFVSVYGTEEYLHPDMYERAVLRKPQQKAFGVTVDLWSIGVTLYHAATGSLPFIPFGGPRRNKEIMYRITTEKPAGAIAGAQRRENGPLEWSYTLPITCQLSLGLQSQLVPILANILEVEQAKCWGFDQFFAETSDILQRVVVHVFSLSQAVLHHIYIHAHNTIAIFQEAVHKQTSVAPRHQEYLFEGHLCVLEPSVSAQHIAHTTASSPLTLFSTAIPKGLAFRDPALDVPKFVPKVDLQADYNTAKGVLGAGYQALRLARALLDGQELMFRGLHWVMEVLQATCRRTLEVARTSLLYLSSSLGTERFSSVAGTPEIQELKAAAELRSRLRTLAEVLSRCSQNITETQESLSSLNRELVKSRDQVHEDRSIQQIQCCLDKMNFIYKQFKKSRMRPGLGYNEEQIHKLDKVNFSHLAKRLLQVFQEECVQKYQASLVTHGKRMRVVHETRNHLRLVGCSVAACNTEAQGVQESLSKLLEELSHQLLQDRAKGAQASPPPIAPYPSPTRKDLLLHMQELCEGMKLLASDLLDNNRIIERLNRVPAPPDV

| Compound | inhibition [1] | inhibition [2] |
| --- | --- | --- |
| c1ccc(Cc2nc3ccc(Nc4ncnc5ccccc45)cc3[nH]2)cc1 | -3% and 1% | -3% and -2% |
| Fc1ccc(Nc2nccc(-c3c(-c4ccc(C(F)(F)F)cc4)nn4ncccc34)n2)cc1F | 19% and 13% | -3% and -2% |
| COc1ccc(-c2nn3ncccc3c2-c2ccnc(Nc3ccc4c(c3)OCCO4)n2)cc1 | 1% | 1% |
| Nc1nc(-c2ccc(F)cc2)c(-c2ccc3ncccc3n2)s1 | 0% and 1% | 0% and 1% |
| Cc1cc(-c2ccco2)cc(C)c1/C=C/c1cncc(-c2nn[nH]n2)c1 | -4% and -2% | 9% and 11% |
| Fc1ccc(-c2ncn(C3CCNCC3)c2-c2ccnc(Oc3ccc4c(c3)OCO4)n2)cc1 | -2% and 0% | -2% and 2% |
| CN(C)C(=O)O[C@@H]1CN[C@@H](C#Cc2cc3ncnc(Nc4ccc(OCc5cccc(F)c5)c(Cl)c4)c3s2)C1 | 2% and 1% | -1% |
| CN1CCC(n2cnc(-c3ccc(F)cc3)c2-c2ccnc(N)n2)CC1 | 2% | 4% |
| COc1cc2ncnc(Nc3ccc4c(cnn4Cc4ccccc4)c3)c2cc1OC | 2% and -2% | 2% |
| CNC(=O)c1cncc(/C=C/c2ccccc2Cl)c1 | 3% and 1% | 0% |
| CNC(=O)c1cc(-c2ccc(F)cc2)cc(-c2ccc(S(=O)(=O)N3CCCC3)cc2)c1N | -3% and -6% | 0% and -1% |
| O=C1Nc2ccccc2/C1=C/Nc1ccc2[nH]c(=O)[nH]c2c1 | 1% | 22% and 20% |
| Cc1ccc(O)cc1Nc1ccnc2cc(-c3ccccn3)ccc12 | 6% and 4% | 1% |
| NS(=O)(=O)c1ccc(N/N=C2\C(=O)Nc3ccc(Cl)cc32)cc1 | 2% | 2% and 1% |
| COc1cc(N2CCN(C(C)C)CC2)ccc1Nc1nc(Nc2ccc(F)cc2C(=O)NC[C@@H](O)CO)c2cc[nH]c2n1 | 2% and 3% | 0% and 1% |
| CN1CCN(Cc2ccc(-c3cc4ncnc(Nc5ccc(OCc6cccc(F)c6)c(Cl)c5)c4s3)o2)CC1 | 0% and -4% | 6% and 5% |
| CCC(=O)Nc1ccc(C)c(-c2ccc(C(=O)NCC3CC3)cc2)c1 | -2% | -2% and 0% |
| Cc1ccc(O)cc1Nc1ccnc2ccc(S(C)(=O)=O)cc12 | 5% | 0% and 2% |
| CS(=O)(=O)CCN(CC#N)Cc1ccc(-c2ccc3ncnc(Nc4ccc(OCc5cccc(F)c5)c(Cl)c4)c3c2)o1 | 1% | 1% and 4% |

| Compound | inhibition [1] | inhibition [2] |
| --- | --- | --- |
| CN1CCC(C(=O)Nc2n[nH]c3nc(-c4ccc(O)cc4)c(Br)cc23)CC1 | 1% and 3% and 4% | 2% (2×) and 1% |
| CCn1c(-c2nonc2N)nc2c(C#CC(C)(C)O)ncc(OC[C@@H]3CCCN3)c21 | 18% and 19% | 97% |
| CCS(=O)(=O)c1ccc(OC)c(Nc2nccc(N(C)c3ccc4c(C)n[nH]c4c3)n2)c1 | -7% and 2% | 8% and 7% |
| Nc1nccc(C#Cc2cncnc2Nc2ccc(OCc3cccc(F)c3)c(Cl)c2)n1 | 2% and 0% | 2% and 4% |
| COC(=O)Nc1nc2cc(Oc3ccc(NC(=O)Nc4ccccc4)cc3)ccc2[nH]1 | -1% and -2% | 2% and 1% |
| Cc1ccc(C(=O)NC2CCCCC2)cc1-c1ccc(C(=O)NCC2CC2)cc1 | 9% and 7% | 0% and -1% |
| O=C(Nc1n[nH]c2cc(-c3ccc(F)cc3)ccc12)C1CC1 | 2% and 12% | 2% and -1% |
| COc1ccc2cc(-c3c(-c4ccncc4)nc(-c4ccc([S+](C)[O-])cc4)n3C)ccc2c1 (configuration not stated) | 4% and 3% | -1% and 2% |
| COc1ccc(-c2oc3ncnc(N)c3c2-c2ccc(NC(=O)Nc3cc(C(F)(F)F)ccc3F)cc2)cc1 | 2% and 1% | 9% and 10% |
| COc1cc2ncn(-c3cc(OCc4ccccc4S(C)(=O)=O)c(C#N)s3)c2cc1OC | 1% and 2% | 90% and 88% |
| COc1cc2ncn(-c3cc(OCc4ccccc4C(F)(F)F)c(C(N)=O)s3)c2cc1OC | 2% and 0% | 0% and 3% |
| Cc1c2ccc(N(C)c3ccnc(Nc4cccc(S(N)(=O)=O)c4)n3)cc2nn1C | 2% | -1% and 2% |
| Cc1cc(Cl)cc2c1NC(=O)C2=NNc1ccc(S(N)(=O)=O)cc1 | 11% | 4% |
| CN(C)CCCn1c(-c2nonc2N)nc2cnccc21 | 8% and 10% | 2% |
| Fc1ccc(-c2ncn(CCCN3CCOCC3)c2-c2ccncc2)cc1 | 0% and 1% | 0% |
| Cc1cccc(Nc2ncc(-c3ccccc3)o2)c1 | -1% and -2% | 0% and 1% |
| CN(C)CCNC(=O)Nc1ccc(N(C)c2ccnc(Nc3ccc(CS(C)(=O)=O)cc3)n2)cc1 | 1% | 1% |
| COc1ccc2cc(-c3c(-c4ccncc4)nc(-c4ccc([S+](C)[O-])cc4C)n3C)ccc2c1 (configuration not stated) | -4% and -5% | -1% and -2% |
| Fc1ccc(-c2ncn(C3CCNCC3)c2-c2ccnc(Oc3ccc(Oc4ccccc4)cc3)n2)cc1 | -5% and -4% | 1% |

| Compound | inhibition [1] | inhibition [2] |
| --- | --- | --- |
| CCn1c(-c2nonc2N)nc2cncc(C(=O)N3CC[C@H](N)C3)c21 | 35% and 28% | 54% and 53% |
| CCn1c(-c2nonc2N)nc2c(C#CC(C)(C)O)ncc(OCC3CCNCC3)c21 | 9% and 3% | 96% |
| NC(=O)c1sc(-n2cnc3cc(C(F)(F)F)ccc32)cc1OCc1ccccc1Br | 1% and 3% | 3% and 2% |
| CS(=O)(=O)Nc1ccc(N/C=C2\C(=O)Nc3ccccc32)cc1 | 4% and 0% | 25% and 24% |
| O=C(Nc1n[nH]c2nc(-c3ccco3)c(Br)cc12)C1CC1 | 85% | 0% |
| CS(=O)(=O)CCNCc1ccoc1-c1ccc2ncnc(Nc3ccc(OCc4ccccc4)cc3)c2c1 | -2% | 3% |
| NS(=O)(=O)c1ccc(N/N=C2\C(=O)Nc3ccc4ncccc4c32)cc1 | 4% and -7% | 55% |
| COc1ccc(-c2cc(-c3c[nH]nc3-c3ccccn3)ccn2)cc1 | 6% | -2% and -1% |
| NS(=O)(=O)c1ccc(Nc2cc(-c3cccc(O)c3)n[nH]2)cc1 | -1% and 0% | -2% and -3% |
| CCn1c(-c2nonc2N)nc2ccccc21 | 24% | -1% and -2% |
| CC(C)c1ccc(-c2cc(-c3c[nH]nc3-c3ccccn3)ccn2)cc1 | 1% and 0% | -5% |
| Nc1ncnc2occ(-c3ccc(NC(=O)Nc4cc(C(F)(F)F)cc(C(F)(F)F)c4)cc3)c12 | 4% and 1% | 7% and 8% |
| CCCN1CCC=C(c2ccc(Nc3nc(Nc4ccccc4C(N)=O)c4cc[nH]c4n3)c(C)c2)C1 | 4% and 2% | 13% and 12% |
| NCc1ccc(-c2nc(-c3ccc(Cl)c(O)c3)c(-c3ccncc3)[nH]2)cc1 | -3% and -4% | -1% and 0% |
| O=C1Nc2ccc(-c3cccnc3)cc2C1=Cc1cc(Br)c(O)c(Br)c1 | 16% and 2% | 37% and 39% |
| CC(=O)Nc1cccc(C#Cc2cncnc2Nc2ccc(OCc3cccc(F)c3)c(Cl)c2)n1 | 2% | -1% |
| COc1cc2ncn(-c3cc(OCc4ccccc4C(F)(F)F)c(C(C)=O)s3)c2cc1OC | 5% and 4% | -4% |
| CCN1CCC(CC(=O)Nc2n[nH]c3nnc(-c4cccc(F)c4F)cc23)CC1 | 1% and 6% | -1% and -3% |
